Experimental data reported in patent US20080293090A1, “AUTOMATED SEMI-SOLID MATRIX ASSAY AND LIQUID HANDLER APPARATUS FOR THE SAME” (AVENTIS PHARMACEUTICALS INC., priority 2001, published 2008).
Structures can show the parent of a compound that is named as a salt.

Experiments:
Format in all cases: cell-based
Colo 205 = test: Soft agar assay, flavopiridol on already formed one week colonies; conditions: Homo sapiens, 168 h, added to colonies formed after 7 days of incubation, read-out: Flavopiridol IC50 (uM) on Formed Colonies, Average ± Standard Error
Procedure: (§1) 25 μL of 10 μM calcein AM (in HBSS) is added to each well and allowed to incubate at 37 deg. C. for at least one hour. The plate is then read in a Cytofluor™ 4000 (3 counts/well) with a gain of 40. The fluorescence for calcein AM (after cleavage in live cells) is excitation=485+20 nm and emission=530+20 nm.
(§2) For analysis, the data provided by the CytoFluor™ are analyzed in EXCEL™. The DMSO control wells are averaged and the standard deviation determined. Each compound well is then divided by the control average×100 for % control. The triplicate wells are averaged and the standard deviation determined. […] The background can be subtracted from each well. Statistical programs such as PRISM could also be used for the graphing and IC50 determination.
(§3) Flavopiridol is added to colonies formed after 7 days of incubation at 37 deg.

MDA-MB435 = test: as above; conditions: Homo sapiens, MDA-MB-435, 168 h, added to colonies formed after 7 days of incubation, read-out: Flavopiridol IC50 (uM) on Formed Colonies, Average ± Standard Error
Procedure: as §1, §2, §3

tumor cells [1] = test: Automated soft agar assay, 96-well plates, Calcein AM stained method; conditions: read-out: IC50s (μM) with Flavopiridol 96-well
Procedure: It was determined that when plating with the test compound, the individual components, i.e., agarose, cells and compound, were more evenly distributed if premixed in a separate plate before being transferred to the 96-well plate. The test compounds were made 10× in RPMI GM, which was diluted to a 1× compound concentration in the mixing plate. […] Satisfactory results were obtained with the following combinations: 25 μL of 10 μM calcein AM (in HBSS) is added to each well and allowed to incubate at 37 deg. C. for at least one hour. […] The fluorescence for calcein AM (after cleavage in live cells) is excitation=485+20 nm and emission=530+20 nm. For analysis, the data provided by the CytoFluor™ are analyzed in EXCEL™. The DMSO control wells are averaged and the standard deviation determined. Each compound well is then divided by the control average×100 for % control. The triplicate wells are averaged and the standard deviation determined. There is some background fluorescence and the colonies treated after formation are not eliminated by the single two-week treatment. The background can be subtracted from each well. Statistical programs such as PRISM could also be used for the graphing and IC50 determination. […] As a comparison, the same compounds were tested in the traditional hand-pipetted, 24-well plates, visually counted method. The only difference was that the soft agar assay used a 500 μL agarose layer in the 24-well plate and 75 uL/layer in the 96-well system, using the Sigma agarose. The two methods produced similar results, i.e. IC50s for the compounds, see Table 4.

NCI-H460 = test: Soft agar assay, flavopiridol on already formed one week colonies; conditions: Homo sapiens, 168 h, added to colonies formed after 7 days of incubation, read-out: Flavopiridol IC50 (uM) on Formed Colonies, Average ± Standard Error
Procedure: as §1
(§4) For analysis, the data provided by the CytoFluor™ are analyzed in EXCEL™. The DMSO control wells are averaged and the standard deviation determined. Each compound well is then divided by the control average×100 for % control. The triplicate wells are averaged and the standard deviation determined. There is some background fluorescence and the colonies treated after formation are not eliminated by the single two-week treatment. The background can be subtracted from each well. Statistical programs such as PRISM could also be used for the graphing and IC50 determination.
(§5) Table 7. provides the IC50 in micromolar values obtained using flavopiridol on already formed colonies of a number of different cell lines (one week colonies). Flavopiridol is added to colonies formed after 7 days of incubation at […]. This method of adding compounds to already formed colonies may be more predictive for the compound's effectiveness against a tumor in vivo.

PC-3 = test: as above; conditions: Homo sapiens, 168 h, added to colonies formed after 7 days of incubation, read-out: Flavopiridol IC50 (uM) on Formed Colonies, Average ± Standard Error
Procedure: as §1, §4, §5

HL-60 = test: as above; conditions: Homo sapiens, 168 h, added to colonies formed after 7 days of incubation, read-out: Flavopiridol IC50 (uM) on Formed Colonies, Average ± Standard Error
Procedure: as §1, §4, §5

tumor cells [2] = test: Soft agar assay, hand-pipetted 24-well plates, Calcein AM stained method
Procedure: 25 μL of 10 μM calcein AM (in HBSS) is added to each well and allowed to incubate at 37 deg. C. for at least one hour. […] The fluorescence for calcein AM (after cleavage in live cells) is excitation=485+20 nm and emission=530+20 nm. For analysis, the data provided by the CytoFluor™ are analyzed in EXCEL™. The DMSO control wells are averaged and the standard deviation determined. Each compound well is then divided by the control average×100 for % control. The triplicate wells are averaged and the standard deviation determined. There is some background fluorescence and the colonies treated after formation are not eliminated by the single two-week treatment. The background can be subtracted from each well. Statistical programs such as PRISM could also be used for the graphing and IC50 determination. […] As a comparison, the same compounds were tested in the traditional hand-pipetted, 24-well plates, visually counted method. The only difference was that the soft agar assay used a 500 μL agarose layer in the 24-well plate and 75 uL/layer in the 96-well system, using the Sigma agarose. The two methods produced similar results, i.e. IC50s for the compounds, see Table 4.

tumor cells [3] = test: Traditional soft agar assay, 24-well tray, visual counting of colonies; conditions: for IC50: read-out: IC50s Determined from Colony Counting; for Average # of colonies: 24-well tray
Procedure: As a comparison, the same compounds were tested in the traditional hand-pipetted, 24-well plates, visually counted method. The only difference was that the soft agar assay used a 500 μL agarose layer in the 24-well plate and 75 uL/layer in the 96-well system, using the Sigma agarose. The 24-well plates were also counted visually, Table 5, and the IC50s determined, Table 6.

[4] = flavopiridol added immediately after plating

IC50 (Colo 205): 1.4 ± 0.06 µM
IC50 (MDA-MB435): 2.2 ± 0.09 µM
IC50 (tumor cells [1]; 168 h, flavopiridol added to one week colonies): 1 µM
IC50 (tumor cells [1]; cells plated with flavopiridol): 0.15 µM
IC50 (tumor cells [1]; [4]): 0.6 µM
IC50 (NCI-H460): 2.4 ± 0.1 µM
IC50 (PC-3): 1.7 ± 0.04 µM
IC50 (HL-60): 1.6 ± 0.15 µM
IC50 (tumor cells [2]; cells plated with flavopiridol): 0.08 µM
IC50 (tumor cells [2]; [4]): 0.4 µM
IC50 (tumor cells [3]; added immediately after plating, 24-well, visual counting): 0.4 µM
IC50s Determined from Colony Counting (tumor cells [3]; added to 1-week colonies, 24-well, visual counting): did not reach 50% control.
IC50 (tumor cells [3]; plated with Flavo, 24-well, visual counting): 0.09 µM
SMILES: CN1CC[C@H](c2c(O)cc(O)c3c(=O)cc(-c4ccccc4Cl)oc23)[C@H](O)C1 [Flavopiridol, (cis-(−)-5,7-Dihydroxy-2-(2-chlorophenyl)-8-[4-(3-hydroxy-1-methyl)piperidinyl]-4H-1-benzopyran-4-one hydrochloride dihydrate]
Average # of colonies (tumor cells [3]; flavopiridol added immediately after plating, 0.00032 μM): 30
Average # of colonies (tumor cells [3]; flavopiridol added immediately after plating, 0.0016 μM): 30
Average # of colonies (tumor cells [3]; flavopiridol added immediately after plating, 0.008 μM): 32
Average # of colonies (tumor cells [3]; flavopiridol added immediately after plating, 0.04 μM): 26
Average # of colonies (tumor cells [3]; flavopiridol added immediately after plating, 0.2 μM): 27
Average # of colonies (tumor cells [3]; flavopiridol added immediately after plating, 1 μM): 0
Average # of colonies (tumor cells [3]; flavopiridol added immediately after plating, 5 μM): 0
Average # of colonies (tumor cells [3]; flavopiridol added to one-week colonies, 0.0032 μM): 34.0
Average # of colonies (tumor cells [3]; flavopiridol added to one-week colonies, 0.016 μM): 35.0
Average # of colonies (tumor cells [3]; flavopiridol added to one-week colonies, 0.08 μM): 32.0
Average # of colonies (tumor cells [3]; flavopiridol added to one-week colonies, 0.4 μM): 33
Average # of colonies (tumor cells [3]; flavopiridol added to one-week colonies, 2 μM): 25
Average # of colonies (tumor cells [3]; flavopiridol added to one-week colonies, 10 μM): 32
Average # of colonies (tumor cells [3]; flavopiridol added to one-week colonies, 50 μM): 20
Average # of colonies (tumor cells [3]; plated with flavopiridol, 0.00032 μM): 27
Average # of colonies (tumor cells [3]; plated with flavopiridol, 0.0016 μM): 25
Average # of colonies (tumor cells [3]; plated with flavopiridol, 0.008 μM): 22
Average # of colonies (tumor cells [3]; plated with flavopiridol, 0.04 μM): 25
Average # of colonies (tumor cells [3]; plated with flavopiridol, 0.2 μM): 0
Average # of colonies (tumor cells [3]; plated with flavopiridol, 1 μM): 0
Average # of colonies (tumor cells [3]; plated with flavopiridol, 5 μM): 0
